The record followed here is PubChem BioAssay (NCI).

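Values below derive from 48-hour exposures of cells grown in 96-well plates, with endpoints linearly interpolated between the two concentrations bracketing the appropriate inhibition level. TGI denotes the concentration required for complete inhibition of growth.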

Common to all, as to experiment: DTP human tumour cell line panel, 48 h
In assay [1] the test system is A549 NSCLC.
Assay [2] relates to CCRF-CEM leukemia.
Assay [3] relates to HL-60(TB) leukemia.
The subject of assay [4] is HOP-62 NSCLC.
Assay [5] deals with HOP-92 NSCLC.
For assay [6], the system named is HS 578T breast.
For assay [7], the system named is KM12 colon.
In assay [8] the test system is M14 melanoma.
The test system of assay [9] is MDA-MB-231 breast.
For assay [10], the system named is MDA-N.
Assay [11] has as its system OVCAR-5 ovarian.
Assay [12] relates to SF-268 CNS.
The subject of assay [13] is SF-295 CNS.
Assay [14] has as its system SK-MEL-28 melanoma.
Assay [15] has as its system SNB-19 CNS.
For assay [16], the system named is SW-620 colon.
The test system of assay [17] is U251 CNS.
Assay [18] relates to UACC-62 melanoma.
Assay [19] relates to UO-31 renal.
Assay [20] has as its system T-47D breast.

The term TGI denotes the concentration giving total growth inhibition. In the case of `O=C(Nc1ccccc1)OCCN=C1c2ccccc2C(Br)C(Br)c2ccccc21` (centres undefined), the total growth inhibition concentration (TGI) in assay [1] is 25.4 µM; in assay [2], 5.3 µM; in [3] it was 3.85 µM; in assay [4], 19.9 µM; in assay [5] it was 16.1 µM; in [6], 22 µM. Further, the TGI in assay [7] is 18.7 µM; in assay [8], 12.4 µM; in assay [9], 20.6 µM; in [10], 17.1 µM; in assay [11], greater than 31.6 µM; in assay [12], 15.6 µM. For the same compound, the TGI in assay [13] was greater than 31.6 µM; in [14] it was 16.1 µM; in [15], 27 µM; in assay [16] it was 16.3 µM; in assay [17], 16.5 µM; in assay [18] it was 17.6 µM. The same compound had a concentration for total growth inhibition (TGI) in assay [19] of 3.61 µM.
As for `COc1ccc(/C=c2/sc3n(c2=O)C(c2ccccc2)C2(O)CCCCC2N=3)cc1` (centres undefined), the TGI in assay [1], in [2], in assay [3], in assay [4], in assay [8] and in [10] was greater than 12.5 µM throughout. Moreover, the total growth inhibition concentration (TGI) in assay [11], in assay [12], in [14], in assay [15], in assay [16] and in assay [20] was greater than 12.5 µM each time. The total growth inhibition concentration (TGI) in assay [17], in assay [18] and in [19] was greater than 12.5 µM each time.
For `O=c1cc(-c2cccc(O)c2)[nH]c2cc3c(cc12)OCO3`, the concentration for total growth inhibition (TGI) in assay [1] was greater than 100 µM; in assay [2], greater than 100 µM; in assay [3], greater than 19.9 µM; in assay [4], 14.7 µM; in assay [7] it was greater than 100 µM; in assay [8], greater than 52.5 µM. Also, the TGI in [9] is 22.1 µM; in assay [10] it was 1.07 µM; in assay [11] it was greater than 100 µM; in [12] it was greater than 69.6 µM; in [13], greater than 100 µM; in assay [14], 83.5 µM. In addition, the TGI in [15] is greater than 49.6 µM; in [16] it was greater than 100 µM; in assay [20] it was greater than 100 µM; in assay [17], greater than 36.5 µM; in assay [18], 8.67 µM; in assay [19], greater than 100 µM.
As for `Cc1cccc2oc3c(CC(=O)O)cccc3c(=O)c12`, the TGI in assay [1], in assay [2], in assay [3], in assay [4], in assay [5] and in assay [6] was greater than 100 µM in each case. In addition, the TGI in assay [7], in assay [8], in assay [9], in [10], in assay [12] and in [13] was greater than 100 µM each time. Besides, the TGI in assay [14], in assay [15], in assay [16], in assay [17] and in assay [19] was greater than 100 µM in each case.
Consider `S=C(N1CCN(c2ccc(Cl)c(Cl)c2)CC1)N1CCN(c2ccc(Cl)c(Cl)c2)CC1`, for which the TGI in assay [1] came to 37.9 µM; in [2], 9.44 µM; in assay [4], 26.5 µM; in [6], 26 µM; in [7] it was 27.1 µM; in assay [8] it was 32.3 µM. Besides, the TGI in assay [9] came out at 21.2 µM; in assay [10], 23.8 µM; in assay [11] it was 44.7 µM; in assay [12] it was 32.4 µM; in assay [13], 22.2 µM; in [14] it was 28.7 µM. Moreover, the TGI in [15] is 26.7 µM; in assay [16], 33.8 µM; in assay [20] it was 23.3 µM; in assay [17], 28 µM; in assay [18] it was 28.8 µM; in assay [19], 25.8 µM.
On to `Cc1c(-c2ccc(O)cc2)n(CCCCCCNCCOC(=O)NCCCc2ccc(N(CCCl)CCCl)cc2)c2ccc(O)cc12`, for which the concentration for total growth inhibition (TGI) was 3.93 µM in [1]; 6.67 µM in assay [2]; 8.57 µM in assay [4]; 7.49 µM in [6]; 3.75 µM in assay [7]; 3 µM in assay [8]. Besides, the TGI in [9] came to 3.38 µM; in assay [10], 3.47 µM; in assay [11], 28.9 µM; in [12] it was 3.45 µM; in assay [13], 6.85 µM; in assay [14] it was 13.8 µM. In addition, the TGI amounted to 28.1 µM in assay [15]; 5.37 µM in assay [16]; 5.8 µM in [20]; 13.5 µM in assay [17]; 3.26 µM in [18].
`COc1cc(NC(C)c2ccc3c(c2)OCCO3)cc(OC)c1OC` (centres undefined): the total growth inhibition concentration (TGI) in [1] was greater than 100 µM; in assay [3], 48.6 µM; in [4], greater than 100 µM; in assay [5] it was greater than 100 µM; in [6], 52.1 µM; in assay [7], greater than 100 µM. The TGI in assay [8] is greater than 100 µM; in assay [9] it was greater than 100 µM; in [10], 30.2 µM; in assay [11], greater than 100 µM; in [12] it was greater than 100 µM; in [13], greater than 100 µM. Further, the TGI in assay [14] was greater than 100 µM; in assay [15], greater than 100 µM; in assay [16], greater than 100 µM; in assay [17], 94.1 µM; in assay [18] it was greater than 100 µM; in [19] it was greater than 100 µM.
Take `COC1(c2ccc(Cl)cc2)SC=C(C)n2c1noc2=O` (centres undefined): the TGI in assay [1], in assay [2], in assay [3], in [5], in assay [6] and in [7] was greater than 100 µM in each case. Besides, the concentration for total growth inhibition (TGI) in assay [8], in assay [10], in assay [11], in [12], in assay [13] and in assay [14] was greater than 100 µM throughout. For the same compound, the total growth inhibition concentration (TGI) in assay [15], in assay [16], in assay [17], in assay [18] and in assay [19] was greater than 100 µM throughout.
